Results from US20140357512A1, “HISTONE DEACETYLASE (HDAC) BIOMARKERS IN MULTIPLE MYELOMA” (priority 2013, published 2014).

Tested on: human myeloma cell line MM.1S
Assay: Biological pathway analysis of SILAC biomarker peptides against pathway database (broadinstitute gsea)
Experimental: Once biomarker peptides are identified for a specific drug by the SILAC method, the biomarker peptides may be compared to peptides/proteins in a biological pathway database in order to identify major biological pathways or functions implicated by the drug's action. A preferred pathway analysis website is at www dot broadinstitute dot org/gsea/index dot jsp.
This example describes the biological pathway analysis that was performed on each of Compound A, Compound B, and Tubastatin A.
Once biomarker peptides were identified for a specific drug (either Compound A, Compound B, or Tubastatin A) by the SILAC method in Example 1, the biomarker peptides were compared to peptides/proteins in the biological pathway database at www dot broadinstitute dot org/gsea/index dot jsp in order to identify major biological pathways or functions implicated by the drug's action.

In the case of `CN1CCc2c(c3ccccc3n2Cc2ccc(C(=O)NO)cc2)C1` [Tubastatin A, reference compound], the “Observed: number of genes in pathway REACTOME_PACKAGING_OF_TELOMERE_ENDS” value (Pathway_size 48) is reported as 26, the “Ratio observed/pathway size, REACTOME_PACKAGING_OF_TELOMERE_ENDS” value (Pathway_size 48) is reported as 0.5417 and the “Observed: number of genes in pathway REACTOME_RNA_POL_I_PROMOTER_OPENING” value (Pathway_size 61) is reported as 40. For the same compound, the “Ratio observed/pathway size, REACTOME_RNA_POL_I_PROMOTER_OPENING” value (Pathway_size 61) was 0.6557, the “Observed: number of genes in pathway REACTOME_DEPOSITION_OF_NEW_CENPA_CONTAINING_NUCLEOSOMES_AT_THE_CENTROMERE” value (Pathway_size 64) was 27 and the “Ratio observed/pathway size, REACTOME_DEPOSITION_OF_NEW_CENPA_CONTAINING_NUCLEOSOMES_AT_THE_CENTROMERE” value (Pathway_size 64) was 0.4219. For the same compound, the “Observed: number of genes in pathway GCM_TPT1” value (Pathway_size 70) was 28, the “Ratio observed/pathway size, GCM_TPT1” value (Pathway_size 70) was 0.4 and the “Observed: number of genes in pathway REACTOME_MEIOTIC_SYNAPSIS” value (Pathway_size 71) was 27. The “Ratio observed/pathway size, REACTOME_MEIOTIC_SYNAPSIS” value (Pathway_size 71) was 0.3803, the “Observed: number of genes in pathway REACTOME_TELOMERE_MAINTENANCE” value (Pathway_size 75) was 26 and the “Ratio observed/pathway size, REACTOME_TELOMERE_MAINTENANCE” value (Pathway_size 75) was 0.3467. For the same compound, the “Observed: number of genes in pathway STRUCTURAL_CONSTITUENT_OF_RIBOSOME” value (Pathway_size 80) was 28, the “Ratio observed/pathway size, STRUCTURAL_CONSTITUENT_OF_RIBOSOME” value (Pathway_size 80) was 0.35 and the “Observed: number of genes in pathway MIPS_RIBOSOME_CYTOPLASMIC” value (Pathway_size 81) was 32. For the same compound, the “Observed: number of genes in pathway REACTOME_AMYLOIDS” value (Pathway_size 81) was 40, the “Ratio observed/pathway size, MIPS_RIBOSOME_CYTOPLASMIC” value (Pathway_size 81) was 0.3951 and the “Ratio observed/pathway size, REACTOME_AMYLOIDS” value (Pathway_size 81) was 0.4938. The “Observed: number of genes in pathway REACTOME_MEIOTIC_RECOMBINATION” value (Pathway_size 84) was 41, the “Ratio observed/pathway size, REACTOME_MEIOTIC_RECOMBINATION” value (Pathway_size 84) was 0.4881 and the “Observed: number of genes in pathway REACTOME_RNA_POL_I_TRANSCRIPTION” value (Pathway_size 86) was 40. For the same compound, the “Ratio observed/pathway size, REACTOME_RNA_POL_I_TRANSCRIPTION” value (Pathway_size 86) was 0.4651, the “Observed: number of genes in pathway KEGG_RIBOSOME” value (Pathway_size 88) was 33 and the “Ratio observed/pathway size, KEGG_RIBOSOME” value (Pathway_size 88) was 0.375. The “Observed: number of genes in pathway MORF_TPT1” value (Pathway_size 102) was 32, the “Ratio observed/pathway size, MORF_TPT1” value (Pathway_size 102) was 0.3137 and the “Observed: number of genes in pathway MIPS_NOP56P_ASSOCIATED_PRE_RRNA_COMPLEX” value (Pathway_size 104) was 33. The “Ratio observed/pathway size, MIPS_NOP56P_ASSOCIATED_PRE_RRNA_COMPLEX” value (Pathway_size 104) was 0.3173, the “Observed: number of genes in pathway REACTOME_MEIOSIS” value (Pathway_size 112) was 42 and the “Ratio observed/pathway size, REACTOME_MEIOSIS” value (Pathway_size 112) was 0.375. For the same compound, the “Observed: number of genes in pathway GCM_NPM1” value (Pathway_size 116) was 36, the “Ratio observed/pathway size, GCM_NPM1” value (Pathway_size 116) was 0.3103 and the “Observed: number of genes in pathway GNF2_DAP3” value (Pathway_size 119) was 30. For the same compound, the “Observed: number of genes in pathway REACTOME_RNA_POL_I_RNA_POL_III_AND_MITOCHONDRIAL_TRANSCRIPTION” value (Pathway_size 119) was 40, the “Ratio observed/pathway size, GNF2_DAP3” value (Pathway_size 119) was 0.2521 and the “Ratio observed/pathway size, REACTOME_RNA_POL_I_RNA_POL_III_AND_MITOCHONDRIAL_TRANSCRIPTION” value (Pathway_size 119) was 0.3361. For the same compound, the “Observed: number of genes in pathway GNF2_EIF3S6” value (Pathway_size 121) was 33, the “Ratio observed/pathway size, GNF2_EIF3S6” value (Pathway_size 121) was 0.2727 and the “Observed: number of genes in pathway GCM_ACTG1” value (Pathway_size 124) was 34. The “Ratio observed/pathway size, GCM_ACTG1” value (Pathway_size 124) was 0.2742, the “Observed: number of genes in pathway MORF_ACTG1” value (Pathway_size 138) was 39 and the “Ratio observed/pathway size, MORF_ACTG1” value (Pathway_size 138) was 0.2826. For the same compound, the “Observed: number of genes in pathway KEGG_SYSTEMIC_LUPUS_ERYTHEMATOSUS” value (Pathway_size 139) was 47, the “Ratio observed/pathway size, KEGG_SYSTEMIC_LUPUS_ERYTHEMATOSUS” value (Pathway_size 139) was 0.3381 and the “Observed: number of genes in pathway REACTOME_PEPTIDE_CHAIN_ELONGATION” value (Pathway_size 145) was 32. For the same compound, the “Ratio observed/pathway size, REACTOME_PEPTIDE_CHAIN_ELONGATION” value (Pathway_size 145) was 0.2207, the “Observed: number of genes in pathway MORF_NME2” value (Pathway_size 154) was 39 and the “Ratio observed/pathway size, MORF_NME2” value (Pathway_size 154) was 0.2532. For the same compound, the “Observed: number of genes in pathway REACTOME_INFLUENZA_VIRAL_RNA_TRANSCRIPTION_AND_REPLICATION” value (Pathway_size 161) was 33, the “Ratio observed/pathway size, REACTOME_INFLUENZA_VIRAL_RNA_TRANSCRIPTION_AND_REPLICATION” value (Pathway_size 161) was 0.205 and the “Observed: number of genes in pathway MORF_NPM1” value (Pathway_size 162) was 43. The “Ratio observed/pathway size, MORF_NPM1” value (Pathway_size 162) was 0.2654, the “Observed: number of genes in pathway REACTOME_3_UTR_MEDIATED_TRANSLATIONAL_REGULATION” value (Pathway_size 166) was 32 and the “Ratio observed/pathway size, REACTOME_3_UTR_MEDIATED_TRANSLATIONAL_REGULATION” value (Pathway_size 166) was 0.1928. For the same compound, the “Observed: number of genes in pathway REACTOME_NONSENSE_MEDIATED_DECAY_ENHANCED_BY_THE_EXON_JUNCTION_COMPLEX” value (Pathway_size 167) was 32, the “Ratio observed/pathway size, REACTOME_NONSENSE_MEDIATED_DECAY_ENHANCED_BY_THE_EXON_JUNCTION_COMPLEX” value (Pathway_size 167) was 0.1916 and the “Observed: number of genes in pathway REACTOME_SRP_DEPENDENT_COTRANSLATIONAL_PROTEIN_TARGETING_TO_MEMBRANE” value (Pathway_size 170) was 39. The “Ratio observed/pathway size, REACTOME_SRP_DEPENDENT_COTRANSLATIONAL_PROTEIN_TARGETING_TO_MEMBRANE” value (Pathway_size 170) was 0.2294, the “Observed: number of genes in pathway REACTOME_INFLUENZA_LIFE_CYCLE” value (Pathway_size 195) was 37 and the “Ratio observed/pathway size, REACTOME_INFLUENZA_LIFE_CYCLE” value (Pathway_size 195) was 0.1897. For the same compound, the “Observed: number of genes in pathway MORF_ANP32B” value (Pathway_size 197) was 38, the “Ratio observed/pathway size, MORF_ANP32B” value (Pathway_size 197) was 0.1929 and the “Observed: number of genes in pathway REACTOME_TRANSCRIPTION” value (Pathway_size 207) was 45. For the same compound, the “Ratio observed/pathway size, REACTOME_TRANSCRIPTION” value (Pathway_size 207) was 0.2174, the “Observed: number of genes in pathway REACTOME_TRANSLATION” value (Pathway_size 211) was 39 and the “Ratio observed/pathway size, REACTOME_TRANSLATION” value (Pathway_size 211) was 0.1848. The “Observed: number of genes in pathway MORF_UBE2I” value (Pathway_size 238) was 43, the “Ratio observed/pathway size, MORF_UBE2I” value (Pathway_size 238) was 0.1807 and the “Observed: number of genes in pathway MODULE_32” value (Pathway_size 241) was 36. The “Ratio observed/pathway size, MODULE_32” value (Pathway_size 241) was 0.1494, the “Observed: number of genes in pathway MORF_HDAC1” value (Pathway_size 254) was 37 and the “Ratio observed/pathway size, MORF_HDAC1” value (Pathway_size 254) was 0.1457. The “Observed: number of genes in pathway MORF_DEK” value (Pathway_size 262) was 39, the “Ratio observed/pathway size, MORF_DEK” value (Pathway_size 262) was 0.1489 and the “Observed: number of genes in pathway MORF_RAN” value (Pathway_size 268) was 46. The “Ratio observed/pathway size, MORF_RAN” value (Pathway_size 268) was 0.1716, the “Observed: number of genes in pathway MODULE_151” value (Pathway_size 318) was 49 and the “Ratio observed/pathway size, MODULE_151” value (Pathway_size 318) was 0.1541. For the same compound, the “Observed: number of genes in pathway MODULE_83” value (Pathway_size 320) was 50, the “Ratio observed/pathway size, MODULE_83” value (Pathway_size 320) was 0.1562 and the “Observed: number of genes in pathway MODULE_114” value (Pathway_size 338) was 49. The “Ratio observed/pathway size, MODULE_114” value (Pathway_size 338) was 0.145, the “Observed: number of genes in pathway HSIAO_HOUSEKEEPING_GENES” value (Pathway_size 389) was 68 and the “Ratio observed/pathway size, HSIAO_HOUSEKEEPING_GENES” value (Pathway_size 389) was 0.1748. For the same compound, the “Observed: number of genes in pathway MOOTHA_HUMAN_MITODB_6_2002” value (Pathway_size 429) was 46, the “Ratio observed/pathway size, MOOTHA_HUMAN_MITODB_6_2002” value (Pathway_size 429) was 0.1072 and the “Observed: number of genes in pathway REACTOME_METABOLISM_OF_PROTEINS” value (Pathway_size 496) was 56. For the same compound, the “Ratio observed/pathway size, REACTOME_METABOLISM_OF_PROTEINS” value (Pathway_size 496) was 0.1129, the “Observed: number of genes in pathway MARTENS_TRETINOIN_RESPONSE_DN” value (Pathway_size 841) was 63 and the “Ratio observed/pathway size, MARTENS_TRETINOIN_RESPONSE_DN” value (Pathway_size 841) was 0.07491. The “Observed: number of genes in pathway GRADE_COLON_CANCER_UP” value (Pathway_size 870) was 62, the “Ratio observed/pathway size, GRADE_COLON_CANCER_UP” value (Pathway_size 870) was 0.07126 and the “Observed: number of genes in pathway DANG_BOUND_BY_MYC” value (Pathway_size 1102) was 68. The “Ratio observed/pathway size, DANG_BOUND_BY_MYC” value (Pathway_size 1102) was 0.06171, the “Observed: number of genes in pathway CYTOPLASMIC_PART” value (Pathway_size 1383) was 67 and the “Ratio observed/pathway size, CYTOPLASMIC_PART” value (Pathway_size 1383) was 0.04845. The “Observed: number of genes in pathway PUJANA_BRCA1_PCC_NETWORK” value (Pathway_size 1651) was 84, the “Ratio observed/pathway size, PUJANA_BRCA1_PCC_NETWORK” value (Pathway_size 1651) was 0.05088 and the “Observed: number of genes in pathway CYTOPLASM” value (Pathway_size 2130) was 83. The “Ratio observed/pathway size, CYTOPLASM” value (Pathway_size 2130) was 0.03897.
